From patent US6372446B1, “Method of selectively determining a fungal biomass” (Mycometer ApS, priority 1997, dated 2002)

What was measured:
[1] = test system: Aureobasidium pullulans (QM 3092); assay: Screening of fungi for enzyme activity with 4-methylumbelliferone-labelled substrates; type: cell-based; conditions: substrate 10 μM, 25° C., pH 5; for Enzyme activity: amount of released 4-methylumbelliferone during 5 hours of incubation: Aureobasidium pulluians (QM 3092), vegetable juice medium; for Enzyme activity: amount of released 4-methylumbelliferone: Aureobasidium pullulans (QM 3092), mineral medium
[2] = test system: Paecilomyces farinosus (AGM 5); assay: as above; type: cell-based; conditions: substrate 10 μM, 25° C., pH 5; for Enzyme activity: amount of released 4-methylumbelliferone: mineral medium; for Enzyme activity: amount of released 4-methylumbelliferone during 5 hours of incubation: vegetable juice medium
[3] = test system: Cladosporium herbarum (AGM 8); assay: as above; type: cell-based; conditions: substrate 10 μM, 25° C., pH 5; for Enzyme activity: amount of released 4-methylumbelliferone: mineral medium; for Enzyme activity: amount of released 4-methylumbelliferone during 5 hours of incubation: vegetable juice medium
[4] = test system: Penicillium commune (IBT 13713); assay: as above; type: cell-based; conditions: substrate 10 μM, 25° C., pH 5; for Enzyme activity: amount of released 4-methylumbelliferone: mineral medium; for Enzyme activity: amount of released 4-methylumbelliferone during 5 hours of incubation: vegetable juice medium
[5] = test system: Penicillium solitum (IBT 13771); assay: as above; type: cell-based; conditions: substrate 10 μM, 25° C., pH 5; for Enzyme activity: amount of released 4-methylumbelliferone: mineral medium; for Enzyme activity: amount of released 4-methylumbelliferone during 5 hours of incubation: vegetable juice medium
[6] = test system: Aspergillus oryzae (AGM 11); assay: as above; type: cell-based; conditions: substrate 10 μM, 25° C., pH 5; for Enzyme activity: amount of released 4-methylumbelliferone: mineral medium; for Enzyme activity: amount of released 4-methylumbelliferone during 5 hours of incubation: vegetable juice medium
[7] = test system: Mucor racemosus (AAS 310); assay: as above; type: cell-based; conditions: substrate 10 μM, 25° C., pH 5; for Enzyme activity: amount of released 4-methylumbelliferone: mineral medium; for Enzyme activity: amount of released 4-methylumbelliferone during 5 hours of incubation: vegetable juice medium
[8] = test system: Ascobolus crenulatus (AAS 1); assay: as above; type: cell-based; conditions: substrate 10 μM, 25° C., pH 5; for Enzyme activity: amount of released 4-methylumbelliferone: mineral medium; for Enzyme activity: amount of released 4-methylumbelliferone during 5 hours of incubation: vegetable juice medium
[9] = test system: Trametes versicolor (AGM 24); assay: as above; type: cell-based; conditions: substrate 10 μM, 25° C., pH 5; for Enzyme activity: amount of released 4-methylumbelliferone: mineral medium; for Enzyme activity: amount of released 4-methylumbelliferone during 5 hours of incubation: vegetable juice medium
[10] = test system: Rhizomucor pusillus (AAS 300); assay: as above; type: cell-based; conditions: substrate 10 μM, 25° C., pH 5; for Enzyme activity: amount of released 4-methylumbelliferone: mineral medium; for Enzyme activity: amount of released 4-methylumbelliferone during 5 hours of incubation: vegetable juice medium
[11] = test system: Schizophyllum commune (AGM 25); assay: as above; type: cell-based; conditions: substrate 10 μM, 25° C., pH 5; for Enzyme activity: amount of released 4-methylumbelliferone: mineral medium; for Enzyme activity: amount of released 4-methylumbelliferone during 5 hours of incubation: vegetable juice medium
[12] = test system: Sodaria fimicola (AAS 17); assay: as above; type: cell-based; conditions: substrate 10 μM, 25° C., pH 5; for Enzyme activity: amount of released 4-methylumbelliferone: mineral medium; for Enzyme activity: amount of released 4-methylumbelliferone during 5 hours of incubation: vegetable juice medium
[13] = test system: Eurotium sp. (AAS 36); assay: as above; type: cell-based; conditions: substrate 10 μM, 25° C., pH 5; for Enzyme activity: amount of released 4-methylumbelliferone: mineral medium; for Enzyme activity: amount of released 4-methylumbelliferone during 5 hours of incubation: vegetable juice medium
[14] = test system: Aspergillus versicolor (IBT 13738); assay: as above; type: cell-based; conditions: substrate 10 μM, 25° C., pH 5; for Enzyme activity: amount of released 4-methylumbelliferone: mineral medium; for Enzyme activity: amount of released 4-methylumbelliferone during 5 hours of incubation: vegetable juice medium
[15] = test system: human hexosaminidase; assay: Cleavage of substrate in human blood and plasma samples; type: biochemical
From the text: The diagnostic method detects fungal β-N-acetylhexosaminidase activity in human plasma. […] However, it was discovered that this human hexosaminidase activity can be eliminated by a pre-treatment step comprising precipitation e.g. by adding ammonium sulphate (70% saturation) to the human plasma samples. […] In the samples containing C. albicans culture fluid more than 75% of the fungal β-N-acetylhexosaminidase activity remained after precipitation step to eliminate interfering human enzyme activity. […] After incubation, 300 μl Tris buffer (2.5 M) was added to the mixture to increase the pH to above 9 and the fluorescence measured. This procedure was tested on plasma from different control subjects with no known previous fungal infections. Culture fluids from cultivation of C. albicans or of A. fumigatus containing β-N-acetylhexosaminidase activity were added to the plasma samples. […] After the incubation, Tris buffer was added and the fluorescence formed was measured against the control samples. The presence of fungal β-N-acetylhexosaminidase activity was detected and the fluorescence was proportional to the amount of fungal β-N-acetylhexosaminidase added.

[16] = test system: all fungi tested; assay: Screening of a diverse selection of fungi for ability to degrade 11 substrates (summary); type: cell-based; conditions: mineral medium and vegetable juice medium
Procedure: A number of fungi representing different taxonomic groupings were screened for enzyme activity. The fungi were grown for in 24 well plates (Nunclon Multidish, Life Technologies A/S) (well volume 3.4 ml) containing 1.5 ml of agarized growth medium. After a growth period of 10 days at 25° C., 1.5 ml citrate-phosphat buffer (pH 5) were added to the wells and one of 11 enzyme substrates were then added to each well and incubated for 5 hours at 25° C. after which the fluorescence of each well was measured. For each fungus two wells were incubated with each enzyme substrate. All substrates were used in a final concentration of 10 μM. The substrate only and the organism plus the agarized medium were included as controls. […] The fungi subjected to the assaying procedure were all obtained from the culture collection of the Department of General Microbiology at the University of Copenhagen, Denmark.

Enzyme activity: amount of released 4-methylumbelliferone during 5 hours of incubation [1]	Enzyme activity: amount of released 4-methylumbelliferone [1]	Enzyme activity: amount of released 4-methylumbelliferone [2]	Enzyme activity: amount of released 4-methylumbelliferone during 5 hours of incubation [2]	Enzyme activity: amount of released 4-methylumbelliferone [3]	Enzyme activity: amount of released 4-methylumbelliferone during 5 hours of incubation [3]	Enzyme activity: amount of released 4-methylumbelliferone [4]	Enzyme activity: amount of released 4-methylumbelliferone during 5 hours of incubation [4]	Enzyme activity: amount of released 4-methylumbelliferone [5]	Enzyme activity: amount of released 4-methylumbelliferone during 5 hours of incubation [5]	Enzyme activity: amount of released 4-methylumbelliferone [6]	Enzyme activity: amount of released 4-methylumbelliferone during 5 hours of incubation [6]	Enzyme activity: amount of released 4-methylumbelliferone [7]	Enzyme activity: amount of released 4-methylumbelliferone during 5 hours of incubation [7]	Enzyme activity: amount of released 4-methylumbelliferone [8]	Enzyme activity: amount of released 4-methylumbelliferone during 5 hours of incubation [8]	Enzyme activity: amount of released 4-methylumbelliferone [9]	Enzyme activity: amount of released 4-methylumbelliferone during 5 hours of incubation [9]	Enzyme activity: amount of released 4-methylumbelliferone [10]	Enzyme activity: amount of released 4-methylumbelliferone during 5 hours of incubation [10]	Structure (SMILES)	other results
*** (2 ≦ ***)	*** (2 ≦ ***)	*** (2 ≦ ***)	*** (2 ≦ ***)	** (1 ≦ ** 2)	** (1 ≦ ** 2)	** (1 ≦ ** 2)	*** (2 ≦ ***)	*** (2 ≦ ***)	*** (2 ≦ ***)	*** (2 ≦ ***)	*** (2 ≦ ***)	*** (2 ≦ ***)	*** (2 ≦ ***)	*** (2 ≦ ***)	*** (2 ≦ ***)	** (1 ≦ ** 2)	*** (2 ≦ ***)	* (0.4 ≦ * < 1)	*** (2 ≦ ***)	CC(=O)N[C@H]1[C@H](Oc2ccc3c(C)cc(=O)oc3c2)O[C@H](CO)[C@@H](O)[C@@H]1O [substrate 3, 4-methylumbelliferyl N-acetyl-β-D-blucosaminide]	Enzyme activity: amount of released 4-methylumbelliferone [11]: *** (2 ≦ ***); Enzyme activity: amount of released 4-methylumbelliferone during 5 hours of incubation [11]: *** (2 ≦ ***); Enzyme activity: amount of released 4-methylumbelliferone [12]: ** (1 ≦ ** 2); Enzyme activity: amount of released 4-methylumbelliferone during 5 hours of incubation [12]: *** (2 ≦ ***); Enzyme activity: amount of released 4-methylumbelliferone [13]: *** (2 ≦ ***); Enzyme activity: amount of released 4-methylumbelliferone during 5 hours of incubation [13]: *** (2 ≦ ***); Enzyme activity: amount of released 4-methylumbelliferone [14]: ** (1 ≦ ** 2); Enzyme activity: amount of released 4-methylumbelliferone during 5 hours of incubation [14]: *** (2 ≦ ***); cleavage by human hexosaminidase [15]: also cleaved by human hexosaminidase; ability to degrade the substrate [16]: could be demonstrated in all fungi tested
*** (2 ≦ ***)	*** (2 ≦ ***)	** (1 ≦ ** 2)	*** (2 ≦ ***)	* (0.4 ≦ * < 1)	* (0.4 ≦ * < 1)	0 µmol	*** (2 ≦ ***)	** (1 ≦ ** 2)	*** (2 ≦ ***)	** (1 ≦ ** 2)	*** (2 ≦ ***)	** (1 ≦ ** 2)	*** (2 ≦ ***)	** (1 ≦ ** 2)	** (1 ≦ ** 2)	** (1 ≦ ** 2)	*** (2 ≦ ***)	*** (2 ≦ ***)	*** (2 ≦ ***)	CC(=O)N[C@H]1[C@H](Oc2ccc3c(C)cc(=O)oc3c2)O[C@H](CO)[C@@H](O[C@@H]2O[C@H](CO)[C@@H](O[C@@H]3O[C@H](CO)[C@@H](O)[C@H](O)[C@H]3NC(C)=O)[C@H](O)[C@H]2NC(C)=O)[C@@H]1O [substrate 4, 4-methylumbelliferyl β-D-N,N′,N″triacetylchitotrioside]	Enzyme activity: amount of released 4-methylumbelliferone [11]: ** (1 ≦ ** 2); Enzyme activity: amount of released 4-methylumbelliferone during 5 hours of incubation [11]: *** (2 ≦ ***); Enzyme activity: amount of released 4-methylumbelliferone [12]: ** (1 ≦ ** 2); Enzyme activity: amount of released 4-methylumbelliferone during 5 hours of incubation [12]: *** (2 ≦ ***); Enzyme activity: amount of released 4-methylumbelliferone [13]: ** (1 ≦ ** 2); Enzyme activity: amount of released 4-methylumbelliferone during 5 hours of incubation [13]: ** (1 ≦ ** 2); Enzyme activity: amount of released 4-methylumbelliferone [14]: * (0.4 ≦ * < 1); Enzyme activity: amount of released 4-methylumbelliferone during 5 hours of incubation [14]: *** (2 ≦ ***); ability to degrade the substrate [16]: could be demonstrated in all fungi tested
